# Source: US5892063A (Hauser, Inc., priority 1997, dated 1999)
# Read-outs that look alike come from different tables or passages of the source.
# How the values were obtained:
# [1] = SRB growth screen, whole cell line panel; type: cell-based; settings: for CC50: Homo sapiens, read-out: Log10 LC50, Mean (converted); for GI50: read-out: Log10 GI50, Mean (converted); for IC (TGI): read-out: Log10 TGI, Mean (converted)
# Procedure: The screening assay is performed on 96-well microtitre plates. […] Duplicate wells are prepared for all concentrations; "time-zero" and "nodrug" controls are also provided for each test. […] One hundred microliters of SRB solution (0.4% w/v in 1% acetic acid) is added to each microtitre well and incubated for 10 minutes at room temperature.
# The response parameters GI50 and LC50 are interpolated values representing the concentrations at which the percentage growth (PG) is +50 and -50 respectively:
# GI50 is the concentration for which the PG=+50.
# TGI is the concentration for which PG=0.
# LC50 is the concentration for which the PG=-50. […] This is interpreted as cytotoxicity.
# The data represented in Table I is graphically represented in FIGS. 1a and 1b through FIGS. 9a and 9b. […] The following is an example of how the information in Table I and in the Figures is interpreted.
# [2] = system: M14; test: SRB growth screen, melanoma M14; settings: Homo sapiens, M14, 48 h; for CC50: read-out: Log10 LC50 (converted)
# [3] = system: MOLT-4; test: SRB growth screen, leukemia MOLT-4; settings: Homo sapiens, MOLT-4, 48 h; for CC50: read-out: Log10 LC50 (converted); for IC (TGI): read-out: Log10 TGI
# [4] = system: U251; test: SRB growth screen, CNS cancer U251; settings: Homo sapiens, U-251, 48 h; for CC50: read-out: Log10 LC50 (converted)
# [5] = system: HT29; test: SRB growth screen, colon cancer HT29; settings: Homo sapiens, HT-29, 48 h; for GI50: read-out: Log10 GI50 (converted); for CC50: read-out: Log10 LC50 (converted)
# [6] = system: LOX-IMVI; test: SRB growth screen, melanoma LOX-IMVI; settings: Homo sapiens, 48 h; for CC50: read-out: Log10 LC50 (converted); for IC (TGI): read-out: Log10 TGI
# [7] = system: SK-MEL-2; test: SRB growth screen, melanoma SK-MEL-2; settings: Homo sapiens, SK-MEL-2, 48 h; for CC50: read-out: Log10 LC50 (converted)
# [8] = system: HL-60(TB); test: SRB growth screen, leukemia HL-60(TB); settings: Homo sapiens, HL-60, 48 h; for CC50: read-out: Log10 LC50 (converted); for IC (TGI): read-out: Log10 TGI
# [9] = system: 786-0; test: SRB growth screen, renal cancer 786-0; settings: Homo sapiens, 786-0, 48 h; for CC50: read-out: Log10 LC50 (converted); for IC (TGI): read-out: Log10 TGI
# [10] = system: UO-31; test: SRB growth screen, renal cancer UO-31; settings: Homo sapiens, UO-31, 48 h; for CC50: read-out: Log10 LC50 (converted); for IC (TGI): read-out: Log10 TGI
# [11] = system: MCF7; test: SRB growth screen, breast cancer MCF7; settings: Homo sapiens, MCF7, 48 h; for CC50: read-out: Log10 LC50 (converted)
# [12] = system: SW-620; test: SRB growth screen, colon cancer SW-620; settings: Homo sapiens, SW-620, 48 h; for CC50: read-out: Log10 LC50 (converted); for IC (TGI): read-out: Log10 TGI
# [13] = system: T-47D; test: SRB growth screen, breast cancer T-47D; settings: Homo sapiens, T47D, 48 h; for GI50: read-out: Log10 GI50 (converted); for CC50: read-out: Log10 LC50 (converted)
# [14] = system: HCT-116; test: SRB growth screen, colon cancer HCT-116; settings: Homo sapiens, HCT-116, 48 h; for GI50: read-out: Log10 GI50 (converted); for CC50: read-out: Log10 LC50 (converted)
# [15] = system: RXF-393; test: SRB growth screen, renal cancer RXF-393; settings: Homo sapiens, RXF 393, 48 h; for CC50: read-out: Log10 LC50 (converted); for IC (TGI): read-out: Log10 TGI
# [16] = system: HCC-2998; test: SRB growth screen, colon cancer HCC-2998; settings: Homo sapiens, HCC 2998, 48 h; for CC50: read-out: Log10 LC50 (converted); for IC (TGI): read-out: Log10 TGI
# [17] = system: OVCAR-3; test: SRB growth screen, ovarian cancer OVCAR-3; settings: Homo sapiens, OVCAR-3, 48 h; for CC50: read-out: Log10 LC50 (converted); for IC (TGI): read-out: Log10 TGI
# [18] = system: OVCAR-4; test: SRB growth screen, ovarian cancer OVCAR-4; settings: Homo sapiens, OVCAR-4, 48 h; for GI50: read-out: Log10 GI50 (converted); for CC50: read-out: Log10 LC50 (converted); for IC (TGI): read-out: Log10 TGI
# [19] = system: MDA-MB-231/ATCC; test: SRB growth screen, breast cancer MDA-MB-231/ATCC; settings: Homo sapiens, MDA-MB-231, 48 h; for CC50: read-out: Log10 LC50 (converted)
# [20] = system: NCI-H460; settings: Homo sapiens, NCI-H460, 48 h; for CC50: read-out: Log10 LC50 (converted)
# [21] = system: NCI-H522; settings: Homo sapiens, NCI-H522, 48 h; for GI50: read-out: Log10 GI50 (converted); for IC (TGI): read-out: Log10 TGI
# [22] = system: tumor models; settings: cited from earlier work
# [23] = read-out: Log10 GI50 (converted)
smiles,measurement,setting,value
"CC(=O)O[C@H]1C(=O)[C@@]2(C)[C@H]([C@H](OC(=O)c3ccccc3)[C@]3(O)C[C@H](OC(=O)[C@H](O)[C@@H](NC(=O)C4(C)OC4C)c4ccccc4)C(C)=C1C3(C)C)[C@]1(OC(C)=O)CO[C@@H]1C[C@@H]2O (stereo partly drawn) [Ceph-epoxide, cephalomannine epoxide]",CC50,[1],64.6 µM
same,GI50,[1]; mean over cell lines,28.8 nM
same,IC (TGI),[1]; mean over cell lines,5.75 µM
same,GI50,[2]; [23],< 0.01 µM
same,CC50,[2],> 100 µM
same,GI50,[3]; [23],< 0.01 µM
same,CC50,[3],> 100 µM
same,IC (TGI),[3],> 100 µM
same,GI50,[4]; [23],< 0.01 µM
same,CC50,[4],> 100 µM
same,GI50,[5],< 10 nM
same,CC50,[5],> 100 µM
same,IC (TGI),[5]; read-out: Log10 TGI,0.115 µM
same,GI50,[6]; [23],< 0.01 µM
same,CC50,[6],> 100 µM
same,IC (TGI),[6],21.4 µM
same,GI50,[7]; [23],< 0.01 µM
same,CC50,[7],> 100 µM
same,GI50,[8]; [23],< 0.01 µM
same,CC50,[8],> 100 µM
same,IC (TGI),[8],< 0.01 µM
same,CC50,[9],> 100 µM
same,IC (TGI),[9],> 100 µM
same,GI50,[10]; [23],2 µM
same,CC50,[10],> 100 µM
same,IC (TGI),[10],> 100 µM
same,GI50,[11]; [23],< 0.01 µM
same,CC50,[11],> 100 µM
same,IC (TGI),[11]; read-out: Log10 TGI,> 100 µM
same,CC50,[12],> 100 µM
same,IC (TGI),[12],> 100 µM
same,GI50,[13],15.5 µM
same,CC50,[13],> 100 µM
same,IC (TGI),[13]; read-out: Log10 TGI,> 100 µM
same,GI50,[14],< 10 nM
same,CC50,[14],> 100 µM
same,GI50,[15]; [23],0.214 µM
same,CC50,[15],> 100 µM
same,IC (TGI),[15],> 100 µM
same,GI50,[16]; [23],< 0.01 µM
same,CC50,[16],> 100 µM
same,IC (TGI),[16],0.0457 µM
same,GI50,[17]; [23],< 0.01 µM
same,CC50,[17],> 100 µM
same,IC (TGI),[17],0.0182 µM
same,GI50,[18],3.89 µM
same,CC50,[18],> 100 µM
same,IC (TGI),[18],> 100 µM
same,GI50,[19]; [23],0.0182 µM
same,CC50,[19],> 100 µM
same,GI50,[20]; [23],< 0.01 µM
same,CC50,[20],> 100 µM
same,IC (TGI),[20]; read-out: Log10 TGI,> 100 µM
same,GI50,[21],< 10 nM
same,IC (TGI),[21],33.1 nM
"CC(=O)O[C@H]1C(=O)[C@@]2(C)[C@H]([C@H](OC(=O)c3ccccc3)[C@]3(O)C[C@H](OC(=O)[C@H](O)[C@@H](NC(=O)c4ccccc4)c4ccccc4)C(C)=C1C3(C)C)[C@]1(OC(C)=O)CO[C@@H]1C[C@@H]2O [Paclitaxel, paclitaxel, reference compound]",CC50,[1]; mean over cell lines,87.1 µM
same,GI50,[1]; mean over cell lines,0.0708 nM
same,IC (TGI),[1]; mean over cell lines,28.8 µM
same,activity in model tumor systems,[22],excellent activity
same,CC50,[2],74.1 µM
same,IC (TGI),[2]; read-out: Log10 TGI,24 µM
same,CC50,[3],> 100 µM
same,IC (TGI),[3],> 100 µM
same,CC50,[4],70.8 µM
same,IC (TGI),[4]; read-out: Log10 TGI,47.9 µM
same,GI50,[5],< 0.0001 nM
same,CC50,[5],40.7 µM
same,CC50,[6],> 70.8 µM
same,IC (TGI),[6],22.4 µM
same,CC50,[7],> 100 µM
same,CC50,[8],> 100 µM
same,IC (TGI),[8],> 29.5 µM
same,CC50,[9],> 100 µM
same,IC (TGI),[9],> 100 µM
same,CC50,[10],> 100 µM
same,IC (TGI),[10],51.3 µM
same,CC50,[11],> 100 µM
same,CC50,[12],> 100 µM
same,IC (TGI),[12],> 100 µM
same,GI50,[13],0.000155 µM
same,CC50,[13],> 100 µM
same,GI50,[14],< 0.0001 nM
same,CC50,[14],> 100 µM
same,IC (TGI),[14]; read-out: Log10 TGI,15.1 µM
same,CC50,[15],35.5 µM
same,IC (TGI),[15],12.6 µM
same,CC50,[16],55 µM
same,IC (TGI),[16],17 µM
same,CC50,[17],> 100 µM
same,IC (TGI),[17],28.2 µM
same,GI50,[18],10 µM
same,CC50,[18],> 100 µM
same,IC (TGI),[18],64.6 µM
same,CC50,[19],51.3 µM
same,IC (TGI),[19]; read-out: Log10 TGI,14.5 µM
same,CC50,[20],> 100 µM
same,GI50,[21],< 0.0001 nM
same,CC50,[21]; read-out: Log10 LC50 (converted),> 100 µM
same,IC (TGI),[21],0.00631 nM
